# Data as given in article PMC4992173, “Divergent synthesis and identification of the cellular targets of deoxyelephantopins” (Nature Communications, 2016).
# Columns and labels:
# [1] = molecular target: recombinant IKKβ (Homo sapiens, UniProt O14920); test: Labeling of recombinant IKK-β with probe 24c; format: binding; conditions: 10 µM 24c
# [2] = molecular target: T1, Protein HGH1 homolog (HGH1) (Homo sapiens, UniProt Q9BTY7); test: In situ competitive profiling in live MCF7 cells (LFQ): HGH1; format: cell-based; conditions: 4 h, then 10 µM 24c, n=4
# T1 construct: 1,522 proteins were enriched from MCF7 cells by 10 μM probe 24c; endogenous in cells; host or cells: MCF7
# Source text: In our efforts to determine the direct molecular targets of deoxyelephantopin we first performed a gel-based competitive in situ proteomic profiling assay[41] […] While the greater conformational flexibility of probe 24c could potentially lead to more promiscuous target engagement relatively to deoxyelephantopin, it was favoured based on the fact that an alkyne moiety appended to the rigid scaffold of deoxyelephantopin may hinder some of its interactions. MCF7 cells were pretreated with various concentrations of deoxyelephantopin for 4 h, harvested, lysed and the lysates were treated with the fluorogenic probe 24c-Cy3 (10 μM; Supplementary Fig. 10). […] Furthermore, cells were pretreated with 20 μM concentration of deoxyelephantopin or 24c and the proteomic profiles were compared (Fig. 6b, Supplementary Fig. 11). Multiple bands were detected that were equally competed by both DEP and 24c, thus again confirming that 24c can be used as an acceptable clickable analogue of deoxyelephantopin in pulldown assays. Having established the optimal labelling conditions by SDS–PAGE, we next carried out a mass spectrometry-based competitive profiling assay[42] coupled with the method of stable isotope labelling of amino acids in culture (SILAC)[43]. […]
# Figure 6 Proteome-wide identification of deoxyelephantopin targets. […] Quantification was performed using label-free quantification (LFQ) method (n=4). […]
# Sequence of recombinant IKKβ (O14920 whole entry): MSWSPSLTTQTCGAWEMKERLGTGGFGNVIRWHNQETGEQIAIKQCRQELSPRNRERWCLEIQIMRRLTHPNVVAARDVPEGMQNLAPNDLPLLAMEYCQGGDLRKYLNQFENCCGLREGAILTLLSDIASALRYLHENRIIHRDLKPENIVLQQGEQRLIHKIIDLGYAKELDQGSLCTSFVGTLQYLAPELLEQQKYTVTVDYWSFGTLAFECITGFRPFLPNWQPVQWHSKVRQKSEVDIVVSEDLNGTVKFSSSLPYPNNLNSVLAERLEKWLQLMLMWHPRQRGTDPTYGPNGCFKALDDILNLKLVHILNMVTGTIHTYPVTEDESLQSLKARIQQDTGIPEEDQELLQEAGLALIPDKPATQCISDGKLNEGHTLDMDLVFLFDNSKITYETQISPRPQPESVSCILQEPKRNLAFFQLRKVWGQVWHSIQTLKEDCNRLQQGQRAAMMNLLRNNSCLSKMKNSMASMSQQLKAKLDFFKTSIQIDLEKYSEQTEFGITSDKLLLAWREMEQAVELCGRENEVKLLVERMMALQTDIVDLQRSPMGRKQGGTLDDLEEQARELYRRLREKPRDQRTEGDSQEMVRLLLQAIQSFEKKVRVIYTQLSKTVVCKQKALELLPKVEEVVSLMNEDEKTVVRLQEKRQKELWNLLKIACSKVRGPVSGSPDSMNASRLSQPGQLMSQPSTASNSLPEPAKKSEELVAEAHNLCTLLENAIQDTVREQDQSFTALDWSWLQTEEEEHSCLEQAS
# T1 sequence (Q9BTY7 whole entry): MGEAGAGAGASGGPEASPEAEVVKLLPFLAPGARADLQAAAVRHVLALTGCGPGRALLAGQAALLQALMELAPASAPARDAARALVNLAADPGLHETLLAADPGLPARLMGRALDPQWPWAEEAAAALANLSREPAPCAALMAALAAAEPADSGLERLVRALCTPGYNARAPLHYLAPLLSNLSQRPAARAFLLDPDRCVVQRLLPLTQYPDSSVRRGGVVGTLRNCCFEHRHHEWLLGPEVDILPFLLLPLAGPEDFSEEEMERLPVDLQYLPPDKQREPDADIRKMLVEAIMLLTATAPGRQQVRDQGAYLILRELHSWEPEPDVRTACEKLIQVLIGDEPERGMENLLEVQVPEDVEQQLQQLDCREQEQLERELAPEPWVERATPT
SMILES,covalent interaction with recombinant IKKβ [1],LFQ ratio 20 µM Deoxyelephantopin/DMSO with 24c [2]
C#CCC[C@H](OC(=O)C(=C)C)[C@H]1C(=C)C(=O)O[C@@H]1c1ccccc1 [24c],no evidence of covalent interaction,–
C=C(C)C(=O)O[C@H]1CC2=C[C@@H](C/C(C)=C/[C@H]3OC(=O)C(=C)[C@H]13)OC2=O [deoxyelephantopin],–,0.00
